Source: publication PMC8778670, “Identification of an Orally Bioavailable, Brain-Penetrant Compound with Selectivity for the Cannabinoid Type 2 Receptor” (Molecules, 2022)

What was measured:
[1] = target: T1, human CB1 receptors (Homo sapiens, UniProt P21554); experiment: Cannabinoid receptor [3H]CP-55,940 displacement binding assay, CB1; settings: 1 h; 10 µM compound; CHO cell membranes, 2.5 nM radioligand; read-out: Displacement of [3H]CP-55,940 from CB1
T1 construct: expressed in transfected cells; host or cells: CHO cells
T1 sequence (P21554 whole entry): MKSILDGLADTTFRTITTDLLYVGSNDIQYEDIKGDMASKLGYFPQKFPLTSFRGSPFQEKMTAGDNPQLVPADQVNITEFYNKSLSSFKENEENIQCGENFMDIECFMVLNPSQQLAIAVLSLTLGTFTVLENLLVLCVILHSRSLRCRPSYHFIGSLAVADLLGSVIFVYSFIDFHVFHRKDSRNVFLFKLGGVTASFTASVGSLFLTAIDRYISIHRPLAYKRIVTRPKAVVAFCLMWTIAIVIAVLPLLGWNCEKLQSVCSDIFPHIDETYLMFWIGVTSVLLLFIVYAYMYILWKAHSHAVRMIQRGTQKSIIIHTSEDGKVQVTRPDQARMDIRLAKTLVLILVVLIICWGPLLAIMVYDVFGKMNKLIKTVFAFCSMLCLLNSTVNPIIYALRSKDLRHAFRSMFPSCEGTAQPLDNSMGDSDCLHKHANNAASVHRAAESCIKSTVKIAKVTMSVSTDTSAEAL
Method: (§1) The affinities of the compounds for CB1 and CB2 receptors were examined using displacement assays, as previously described. Briefly, cell membranes from CHO cells expressing human CB1 or human CB2 receptors were isolated using differential centrifugation. Test compounds reconstituted in DMSO and were incubated with the isolated membrane in binding buffer (50 mM Tris-HCl, 1 mM EDTA, 3 mM MgCl2, 5 mg/mL BSA, pH 7.4) along with 2.5 nM [^3H]CP-55,940. Total binding was assessed in the presence of equal concentration of DMSO, while non-specific binding was determined in the presence of 10 μM CP-55,940, and background binding was determined in wells lacking membrane. Following incubation at 30 °C for 60 min, the binding reactions were terminated by vacuum filtration through Whatman GF/C filters. The filters were then washed twice with ice-cold buffer (50 mM Tris-HCl, 1 mg/mL BSA). Liquid scintillation cocktail was added to each well and the total tritiated counts per minute were analyzed using a TopCount scintillation counter. Background counts were subtracted from all wells and the percent displacement from total binding was calculated.
(§2) The compounds were initially screened at 10 μM concentrations. If they produced at least ±30% displacement of the radioligand, then full competition curves were constructed. Ki values were calculated using GraphPad Prism (San Diego, CA, USA) and Kd values determined using a 1 site fit. All assays were run in technical and biological replicates so that the n = 5–6.

[2] = target: T2, human CB2 receptors (Homo sapiens, UniProt P34972); experiment: Cannabinoid receptor [3H]CP-55,940 displacement binding assay, CB2; settings: for inhibition at 10 µM: 1 h, 10 µM compound, CHO cell membranes, 2.5 nM radioligand, read-out: Displacement of [3H]CP-55,940 from CB2; for displacement of [3H]CP-55,940 in the competitive radioligand screen: 10 µM, receptor (CB1 or CB2) not given
T2 construct: expressed in transfected cells; host or cells: CHO cells
T2 sequence (P34972 whole entry): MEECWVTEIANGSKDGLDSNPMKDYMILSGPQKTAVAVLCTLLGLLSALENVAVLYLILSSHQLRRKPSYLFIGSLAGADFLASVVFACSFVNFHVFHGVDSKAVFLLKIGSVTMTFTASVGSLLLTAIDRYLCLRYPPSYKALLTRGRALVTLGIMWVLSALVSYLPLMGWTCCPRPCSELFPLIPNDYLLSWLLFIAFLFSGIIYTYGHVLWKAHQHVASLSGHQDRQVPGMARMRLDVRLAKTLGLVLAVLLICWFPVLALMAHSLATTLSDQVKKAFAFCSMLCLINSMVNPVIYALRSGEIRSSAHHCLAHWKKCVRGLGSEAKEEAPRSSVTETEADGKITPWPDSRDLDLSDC
Method: as §1, §2

| Structure (SMILES) | inhibition at 10 µM [1] [%] | inhibition at 10 µM [2] [%] | displacement of [3H]CP-55,940 in the competitive radioligand screen [2] | Ki ([2]; CB2, full competition curves vs [3H]CP-55,940) [nM] |
| --- | --- | --- | --- | --- |
| O=C1c2ccccc2N/C(=N/N=C/c2ccc[nH]2)[C@@H]2CCCN12 [Compound 4a] | -3.09 | -12.5 | – | – |
| Cn1ccnc1/C=N/N=C1/Nc2ccccc2C(=O)N2CCC[C@@H]12 [Compound 4b] | -14 | -14.5 | – | – |
| O=C1c2ccccc2N/C(=N/N=C/c2cncs2)[C@@H]2CCCN12 [Compound 4c, (S,E)-11-[(Thiazol-5-ylmethylene)hydrazono]-pyrrolo[2,1-c][1,4] Benzodiazepine] | 0.25 | 3.06 | – | – |
| Cc1ncc(/C=N/N=C2/Nc3ccccc3C(=O)N3CCC[C@@H]23)s1 [Compound 4d] | -28 | -33.6 | – | – |
| Cc1ncsc1/C=N/N=C1/Nc2ccccc2C(=O)N2CCC[C@@H]12 [Compound 4e] | 21.9 | 19.9 | – | – |
| Nc1ncc(/C=N/N=C2/Nc3ccccc3C(=O)N3CCC[C@@H]23)s1 [Compound 4f] | 1.75 | 3.72 | – | – |
| O=C1c2ccccc2N/C(=N/N=C/c2sc(Cl)nc2Cl)[C@@H]2CCCN12 [Compound 4g] | 24.2 | 29.3 | – | – |
| O=C1c2ccccc2N/C(=N/N=C/c2cc3ccccc3s2)[C@@H]2CCCN12 [Compound 4h, (S,E)-11-[2-(Benzo[b]thiophenylmethylene)hydrazono]-pyrrolo[2,1-c][1,4] Benzodiazepine] | 36.9 | 61 | more than 60% | – |
| O=C1c2cc(Br)ccc2N/C(=N/N=C/c2cc3ccccc3s2)[C@@H]2CCCN12 [Compound 4i, (S,E)-11-[(Benzo[b]thiophen-2-ylmethylene)hydrazono]-7-bromo-pyrrolo[2,1-c][1,4] Benzodiazepine] | 49.8 | 36.4 | – | – |
| O=C1c2cc(Br)ccc2N/C(=N/N=C/c2csc3ccccc23)[C@@H]2CCCN12 [Compound 4j] | 66.8 | 65.2 | – | – |
| Cc1c(/C=N/N=C2/Nc3ccccc3C(=O)N3CCC[C@@H]23)sc2ccccc12 [Compound 4l] | 77.2 | 51.7 | – | – |
| O=C1c2ccccc2N/C(=N/N=C/c2sc3ccccc3c2Cl)[C@@H]2CCCN12 [Compound 4m] | 5.22 | 50 | – | – |
| O=C1c2ccccc2N/C(=N/N=C/c2nc3ccccc3s2)[C@@H]2CCCN12 [Compound 4n, (S,E)-11-[(Benzo[d]thiazol-2-ylmethylene)hydrazono]-pyrrolo[2,1-c][1,4] Benzodiazepine] | 44.1 | 43.3 | – | – |
| Cn1cc(/C=N/N=C2/Nc3ccccc3C(=O)N3CCC[C@@H]23)c2ccccc21 [Compound 4o] | 5.09 | 1.01 | – | – |
| O=C1c2ccccc2N/C(=N/N=C/C23CC4CC(CC(C4)C2)C3)[C@@H]2CCCN12 [Compound 4q] | 55.3 | 95.6 | more than 60% | 137 |
